Measured values: the NIST ThermoML archive (doi:10.1021/acs.jced.5b00934)

Details: Liquid, Vibrating tube method

CCC(C)O (centres undefined) [butan-2-ol]
Details | mass density [kg/m3]
333.15 K, 38040 kPa | 802.1
333.15 K, 39970 kPa | 803.4
333.15 K, 45112 kPa | 806.9
333.15 K, 47953 kPa | 808.7
333.15 K, 50048 kPa | 810.1
333.15 K, 52052 kPa | 811.3
333.15 K, 55007 kPa | 813.2
333.15 K, 62024 kPa | 817.4
333.15 K, 64970 kPa | 819.1
333.15 K, 66117 kPa | 819.8
333.16 K, 20151 kPa | 788.8
333.16 K, 42099 kPa | 804.9
333.16 K, 58002 kPa | 815
333.16 K, 60019 kPa | 816.2
338.15 K, 99 kPa | 765.5
338.15 K, 292 kPa | 765.7
338.15 K, 539 kPa | 766
338.15 K, 892 kPa | 766.4
338.15 K, 1007 kPa | 766.5
338.15 K, 3160 kPa | 768.7
338.15 K, 4911 kPa | 770.5
338.15 K, 10039 kPa | 775.5
338.15 K, 12002 kPa | 777.3
338.15 K, 15149 kPa | 780.1
338.15 K, 18051 kPa | 782.6
338.15 K, 19986 kPa | 784.2
338.15 K, 21999 kPa | 785.9
338.15 K, 32975 kPa | 794.4
338.15 K, 35130 kPa | 796
338.15 K, 40077 kPa | 799.5
338.15 K, 44943 kPa | 802.8
338.15 K, 48022 kPa | 804.9
338.15 K, 52052 kPa | 807.5
338.15 K, 55069 kPa | 809.5
338.15 K, 58033 kPa | 811.3
338.15 K, 60108 kPa | 812.6
338.15 K, 62047 kPa | 813.7
338.15 K, 65005 kPa | 815.5
338.15 K, 66128 kPa | 816.2
338.16 K, 2082 kPa | 767.6
338.16 K, 6964 kPa | 772.5
338.16 K, 8976 kPa | 774.5
338.16 K, 24990 kPa | 788.3
338.16 K, 27960 kPa | 790.7
338.16 K, 30065 kPa | 792.3
338.16 K, 31895 kPa | 793.7
338.16 K, 32982 kPa | 794.5
338.16 K, 33953 kPa | 795.1
338.16 K, 37933 kPa | 798
338.16 K, 41987 kPa | 800.8
338.16 K, 50029 kPa | 806.2
343.15 K, 90 kPa | 760.2
343.15 K, 290 kPa | 760.5
343.15 K, 469 kPa | 760.6
343.15 K, 910 kPa | 761.1
343.15 K, 1032 kPa | 761.3
343.15 K, 1994 kPa | 762.3
343.15 K, 4978 kPa | 765.5
343.15 K, 7040 kPa | 767.6
343.15 K, 9056 kPa | 769.6
343.15 K, 10137 kPa | 770.7
343.15 K, 12089 kPa | 772.5
343.15 K, 14318 kPa | 774.6
343.15 K, 15186 kPa | 775.4
343.15 K, 17997 kPa | 777.9
343.15 K, 19975 kPa | 779.7
343.15 K, 22054 kPa | 781.5
343.15 K, 25145 kPa | 784.1
343.15 K, 27969 kPa | 786.3
343.15 K, 30130 kPa | 788.1
343.15 K, 31848 kPa | 789.4
343.15 K, 32904 kPa | 790.1
343.15 K, 33014 kPa | 790.3
343.15 K, 33950 kPa | 790.9
343.15 K, 35008 kPa | 791.7
343.15 K, 38168 kPa | 794.1
343.15 K, 39957 kPa | 795.4
343.15 K, 42001 kPa | 796.8
343.15 K, 44975 kPa | 798.9
